One test has as its target BRD4 (BDI_K57-E168) (Homo sapiens (Human), UniProt O60885). The experiment in a line: TR-FRET bromodomain binding assay, BRD4 first bromodomain. The conditions noted are these: His-tagged BD1, Alexa647-labeled probe 100 nM. In a few lines: (§1)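 Probe displacement, TR-FRET: 8 nM His-BRD4 domain, 1 nM Eu-anti-His, Alexa647 BET-inhibitor probe 100 nM (BDI)/30 nM (BDII); 20 mM Na phosphate pH 6.0, 50 mM NaCl, 1 mM DTT; cpd 50 μM-0.85 nM, 3-fold; 1 h RT; Ex 340/[…]; IC50 → Ki.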

A further test addresses BRD4 (BDII_E352-M457) (Homo sapiens (Human), UniProt O60885). The experiment in a line: TR-FRET bromodomain binding assay, BRD4 second bromodomain. The note with it: His-tagged BD2, Alexa647-labeled probe 30 nM. In a few lines: as §1
In test [1] the test system is breast cancer cell line MX-1. The test is described as follows: MX-1 cell line proliferation assay, Method B. The test is classed as cell-based. The conditions noted are these: Homo sapiens, MX1; MX-1 cells, 384-well, 72 hours, Cell Titer Glo; read-out: Cellular proliferation: EC50 Method B. The procedure: The impact of compounds of the Examples on cancer cell proliferation was determined using the breast cancer cell line MX-1 (ATCC) in a 3-day proliferation assay and the data are reported in Table 1.
Method B: MX-1 cells were maintained in RPMI 1640 medium (Sigma) supplemented with 10% FBS at 37 C.° and an atmosphere of 5% CO2. For compound testing, MX-1 cells were plated in 384-well white with clear, flat bottom plates at a density of 750 cells/well in 25 μL of culture media and incubated at 370 overnight to allow cell adhesion and spreading. Ten point compound dilution series were prepared in DMSO via a 3-fold serial dilution from either […] or 1 μM stock and added directly to the appropriate wells of the MX-1 cell plate by an ECHO liquid handler (Labcyte). The final compound concentrations in the wells were 10, 3.25, 1, 0.25, 0.124, 0.040, 0.0124, 0.0031, 0.0015 and 0.0005 μM or 1, 0.33, 0.1, 0.025, 0.0124, 0.004, 0.0012, 0.0003, 0.00015, 0.00005 μM, depending on the concentration of the compound stock solution.
Luminescence readings from the Cell Titer Glo assay were normalized to the DMSO treated cells and analyzed using Accelrys Assay Explorer 3.3 software with sigmoidal curve fitting to obtain ECsos. The minimum significant ratio (MSR) was determined to evaluate assay reproducibility (Eastwood et al., (2006) J Biomol Screen, 11: 253-261). The overall MSR was determined to be 3.3 and a moving MSR (last six run MSR overtime) has averaged

The source of these data is patent US9957263B2, “Bromodomain inhibitors” (AbbVie Inc., priority 2013, dated 2018).

For `CCS(=O)(=O)c1ccc(OC2CCCCC2)c(-c2cn(C)c(=O)c3[nH]c(-c4cnn(C5CCNCC5)c4)cc23)c1` [Example 149, 4-[2-(cyclohexyloxy)-5-(ethylsulfonyl)phenyl]-6-methyl-2-[1-(piperidin-4-yl)-1H-pyrazol-4-yl]-1,6-dihydro-7H-pyrrolo[2,3-c]pyridin-7-one], the Ki on BRD4 (BDI_K57-E168) worked out at 2.81 nM; at BRD4 (BDII_E352-M457), 0.669 nM.

As to `CCNC(=O)c1cc2c(-c3cc(S(=O)(=O)CC)ccc3Oc3c(C)cccc3Cn3ccnc3)cn(C)c(=O)c2[nH]1` [Example 150, N-ethyl-4-{5-(ethylsulfonyl)-2-[2-(1H-imidazol-1-ylmethyl)-6-methylphenoxy]phenyl}-6-methyl-7-oxo-6,7-dihydro-1H-pyrrolo[2,3-c]pyridine-2-carboxamide], the values for the Ki on BRD4 (BDI_K57-E168) and on BRD4 (BDII_E352-M457) were 2680 nM and 73.9 nM, respectively.

Turning to `CCNC(=O)c1cc2c(-c3cc(S(=O)(=O)CC)ccc3Oc3c(C)cccc3CN3CCCC3=O)cn(C)c(=O)c2[nH]1` [Example 151, N-ethyl-4-[5-(ethylsulfonyl)-2-{2-methyl-6-[(2-oxopyrrolidin-1-yl)methyl]phenoxy}phenyl]-6-methyl-7-oxo-6,7-dihydro-1H-pyrrolo[2,3-c]pyridine-2-carboxamide], the results for the Ki on BRD4 (BDI_K57-E168) and at BRD4 (BDII_E352-M457) were 813 nM and 9.95 nM, respectively.

With `CCNC(=O)c1cc2c(-c3cc(S(=O)(=O)CC)ccc3Oc3c(C)cccc3CN3CCCS3(=O)=O)cn(C)c(=O)c2[nH]1` [Example 152, 4-[2-{2-[(1,1-dioxido-1,2-thiazolidin-2-yl)methyl]-6-methylphenoxy}-5-(ethylsulfonyl)phenyl]-N-ethyl-6-methyl-7-oxo-6,7-dihydro-1H-pyrrolo[2,3-c]pyridine-2-carboxamide], the Ki on BRD4 (BDI_K57-E168) turned out to be 2080 nM; on BRD4 (BDII_E352-M457) it was 36 nM.

Take `CCNC(=O)c1cc2c(-c3ccc(C(=O)N(CC(=O)NC)Cc4ccccn4)cc3Oc3c(C)cccc3C)cn(C)c(=O)c2[nH]1` [Example 153, 4-[2-(2,6-dimethylphenoxy)-4-{[2-(methylamino)-2-oxoethyl](pyridin-2-ylmethyl)carbamoyl}phenyl]-N-ethyl-6-methyl-7-oxo-6,7-dihydro-1H-pyrrolo[2,3-c]pyridine-2-carboxamide]: the Ki was found to be 1040 nM on BRD4 (BDI_K57-E168) and 2.61 nM on BRD4 (BDII_E352-M457).

On to `CCNC(=O)c1cc2c(-c3ccc(C(=O)N(C)C4CCN(OC(=O)CC)CC4)cc3Oc3c(C)cccc3C)cn(C)c(=O)c2[nH]1` [Example 154, 4-[2-(2,6-dimethylphenoxy)-4-{methyl[1-(propanoyloxy)piperidin-4-yl]carbamoyl}phenyl]-N-ethyl-6-methyl-7-oxo-6,7-dihydro-1H-pyrrolo[2,3-c]pyridine-2-carboxamide], for which the Ki at BRD4 (BDI_K57-E168) was 1040 nM; at BRD4 (BDII_E352-M457) it was 13.7 nM.

Consider `CN(C)C(=O)C1(N2CCCC2=O)CCN(Cc2cc3c(-c4cc(S(C)(=O)=O)ccc4Oc4ccc(F)cc4F)cn(C)c(=O)c3[nH]2)CC1` [Example 155, 1-({4-[2-(2,4-difluorophenoxy)-5-(methylsulfonyl)phenyl]-6-methyl-7-oxo-6,7-dihydro-1H-pyrrolo[2,3-c]pyridin-2-yl}methyl)-N,N-dimethyl-4-(2-oxopyrrolidin-1-yl)piperidine-4-carboxamide], for which the Ki on BRD4 (BDI_K57-E168) turned out to be 23.7 nM; on BRD4 (BDII_E352-M457), 364 nM.

As to `Cn1cc(-c2cc(S(C)(=O)=O)ccc2Oc2ccc(F)cc2F)c2cc(CN3CC(n4cncn4)C3)[nH]c2c1=O` [Example 156, 4-[2-(2,4-difluorophenoxy)-5-(methylsulfonyl)phenyl]-6-methyl-2-{[3-(1H-1,2,4-triazol-1-yl)azetidin-1-yl]methyl}-1,6-dihydro-7H-pyrrolo[2,3-c]pyridin-7-one], the Ki at BRD4 (BDI_K57-E168) was 26.8 nM; at BRD4 (BDII_E352-M457) it was 42.3 nM.

Regarding `CCNC(=O)c1cc2c(-c3cc(S(=O)(=O)CC)ccc3Oc3c(C)cccc3CN3CCC3=O)cn(C)c(=O)c2[nH]1` [Example 157, N-ethyl-4-[5-(ethylsulfonyl)-2-{2-methyl-6-[(2-oxoazetidin-1-yl)methyl]phenoxy}phenyl]-6-methyl-7-oxo-6,7-dihydro-1H-pyrrolo[2,3-c]pyridine-2-carboxamide], the Ki on BRD4 (BDI_K57-E168) stood at 387 nM; on BRD4 (BDII_E352-M457) it was 16.9 nM.

Regarding `CCNC(=O)c1cc2c(-c3cc(S(=O)(=O)CC)ccc3Oc3c(C)cccc3Cn3ccccc3=O)cn(C)c(=O)c2[nH]1` [Example 158, N-ethyl-4-[5-(ethylsulfonyl)-2-{2-methyl-6-[(2-oxopyridin-1(2H)-yl)methyl]phenoxy}phenyl]-6-methyl-7-oxo-6,7-dihydro-1H-pyrrolo[2,3-c]pyridine-2-carboxamide], the Ki amounted to 883 nM on BRD4 (BDI_K57-E168) and 28.5 nM on BRD4 (BDII_E352-M457).

Consider `Cn1cc(-c2cc(S(C)(=O)=O)ccc2Oc2ccc(F)cc2F)c2cc(CNCCC(N)=O)[nH]c2c1=O` [Example 159, 3-[({4-[2-(2,4-difluorophenoxy)-5-(methylsulfonyl)phenyl]-6-methyl-7-oxo-6,7-dihydro-1H-pyrrolo[2,3-c]pyridin-2-yl}methyl)amino]propanamide], for which the inhibition constant (Ki) came to 230 nM on BRD4 (BDI_K57-E168) and 156 nM on BRD4 (BDII_E352-M457).

Turning to `CCNC(=O)c1cc2c(-c3ccc(C(=O)N(CCC(=O)OC)c4ccccc4)cc3Oc3c(C)cccc3C)cn(C)c(=O)c2[nH]1` [Example 160, methyl 3-[{3-(2,6-dimethylphenoxy)-4-[2-(ethylcarbamoyl)-6-methyl-7-oxo-6,7-dihydro-1H-pyrrolo[2,3-c]pyridin-4-yl]benzoyl}(phenyl)amino]propanoate], the results for the Ki on BRD4 (BDI_K57-E168) and at BRD4 (BDII_E352-M457) were 1710 nM and 9.99 nM, respectively.

For the compound `CCNC(=O)c1cc2c(-c3ccc(C(=O)N(CCCN4CCOCC4)Cc4ccccc4)cc3Oc3c(C)cccc3C)cn(C)c(=O)c2[nH]1` [Example 161, 4-[4-{benzyl[3-(morpholin-4-yl)propyl]carbamoyl}-2-(2,6-dimethylphenoxy)phenyl]-N-ethyl-6-methyl-7-oxo-6,7-dihydro-1H-pyrrolo[2,3-c]pyridine-2-carboxamide], the Ki was determined as 1050 nM on BRD4 (BDI_K57-E168) and 3.16 nM on BRD4 (BDII_E352-M457).

Turning to `CCNC(=O)c1cc2c(-c3ccc(C(=O)N(CCN4CCSCC4)c4ccc(Cl)c(Cl)c4)cc3Oc3c(C)cccc3C)cn(C)c(=O)c2[nH]1` [Example 162, 4-[4-{(3,4-dichlorophenyl)[2-(thiomorpholin-4-yl)ethyl]carbamoyl}-2-(2,6-dimethylphenoxy)phenyl]-N-ethyl-6-methyl-7-oxo-6,7-dihydro-1H-pyrrolo[2,3-c]pyridine-2-carboxamide], the Ki is more than 12700 nM on BRD4 (BDI_K57-E168) and 88.6 nM on BRD4 (BDII_E352-M457).

`CCS(=O)(=O)Nc1ccc(Oc2ccc(F)cc2F)c(-c2cn(C)c(=O)c3[nH]c(C#CCOC)cc23)c1` [Example 163, N-{4-(2,4-difluorophenoxy)-3-[2-(3-methoxyprop-1-yn-1-yl)-6-methyl-7-oxo-6,7-dihydro-1H-pyrrolo[2,3-c]pyridin-4-yl]phenyl}ethanesulfonamide]: the values for the Ki at BRD4 (BDI_K57-E168) and on BRD4 (BDII_E352-M457) were 1.64 nM and 0.605 nM, respectively.

In turn, `CCNC(=O)c1cc2c(-c3cc(S(=O)(=O)CC)ccc3Oc3c(C)cccc3CCC3CCCC3)cn(C)c(=O)c2[nH]1` [Example 164, 4-{2-[2-(2-cyclopentylethyl)-6-methylphenoxy]-5-(ethylsulfonyl)phenyl}-N-ethyl-6-methyl-7-oxo-6,7-dihydro-1H-pyrrolo[2,3-c]pyridine-2-carboxamide] yielded a Ki at BRD4 (BDII_E352-M457) of 15.1 nM. Further, the EC50 in test [1] turned out to be 10000 nM.

In the case of `CCNC(=O)c1cc2c(-c3ccc(C(=O)N(CCCN4CCCC4)C(C)Cc4ccccc4)cc3Oc3c(C)cccc3C)cn(C)c(=O)c2[nH]1` (centres unmarked) [Example 165, 4-[2-(2,6-dimethylphenoxy)-4-{(1-phenylpropan-2-yl) [3-(pyrrolidin-1-yl)propyl]carbamoyl}phenyl]-N-ethyl-6-methyl-7-oxo-6,7-dihydro-1H-pyrrolo[2,3-c]pyridine-2-carboxamide], the values for the Ki at BRD4 (BDI_K57-E168) and on BRD4 (BDII_E352-M457) were 429 nM and 4.48 nM, respectively. The EC50 in test [1] was 1460 nM.

On to `CCNC(=O)c1cc2c(-c3ccc(C(=O)N(CC#N)C(C)Cc4ccccc4)cc3Oc3c(C)cccc3C)cn(C)c(=O)c2[nH]1` (centres unmarked) [Example 166, 4-{4-[(cyanomethyl)(1-phenylpropan-2-yl)carbamoyl]-2-(2,6-dimethylphenoxy)phenyl}-N-ethyl-6-methyl-7-oxo-6,7-dihydro-1H-pyrrolo[2,3-c]pyridine-2-carboxamide], for which the Ki on BRD4 (BDI_K57-E168) was more than 12700 nM; at BRD4 (BDII_E352-M457) it was 17.5 nM. In addition, the EC50 in test [1] came out at 3030 nM.
